According to PMC3149978 (Clinical cancer research : an official journal of the …, 2011):
Like-named read-outs stand apart in the source and are kept apart here.

Key:
[1] = system: pediatric patients with refractory solid tumors; experiment: Phase I dose escalation and toxicity evaluation; format: in vivo, human
[2] = system: refractory solid tumors; experiment: Tumor response evaluated by RECIST; format: in vivo, human
[3] = system: VEGF; experiment: Plasma angiogenic biomarker ELISA, baseline vs day 28 of cycle 1; format: in vivo, human; conditions: baseline to day 28 of cycle 1; 12 patients; p = 0.002
[4] = system: placental growth factor (PlGF); experiment: as above; format: in vivo, human; conditions: baseline to day 28 of cycle 1; 12 patients; p = 0.0003
[5] = system: endoglin; experiment: as above; format: in vivo, human; conditions: baseline to day 28 of cycle 1; 12 patients; p = 0.01
[6] = system: stromal cell -derived factor-1 (SDF-1); experiment: as above; format: in vivo, human; conditions: baseline to day 28 of cycle 1; 12 patients
[7] = system: Circulating endothelial cells (CECs) and endothelial progenitor cells (CEPs); experiment: Circulating endothelial cells and progenitor cells by flow cytometry; format: in vivo, human; conditions: 11 patients with paired baseline and day 28 samples
[8] = system: monocyte counts; experiment: Absolute monocyte counts, day 1 vs day 28; format: in vivo, human
[9] = human, in vivo
[10] = system: adult patients; conditions: cited from earlier work
[11] = clinical; conditions: human, in vivo, 20 mg/m2
[12] = Steady-state trough plasma concentrations in cycle 1
[13] = in vivo, po
[14] = Extended pharmacokinetic sampling after the first dose
[15] = 17 patients with decreases, day 1 to day 28
[16] = dose level 15 g/m^2 (so in the source), N = 8

In the case of CCN(CC)CCNC(=O)c1c(C)[nH]c(/C=C2\C(=O)Nc3ccc(F)cc32)c1C [Sunitinib], the cardiac toxicity ([1]; Patient 2, 15 mg/m^2, Day 28, Cycle 1, doxorubicin 367 mg/m^2, prior cardiac radiation) is reported as “Symptomatic diastolic and systolic dysfunction; transient ischemic changes on EKG”, the maximum tolerated dose ([1]; children without prior anthracycline exposure or radiation therapy involving a cardiac field) is reported as 15 mg/m^2 and the “ALT elevation G1” value ([1]; human, in vivo) is reported as 11%. The “Hypophosphatemia G1” value ([1]; human, in vivo) was 11%, the “Leukopenia G1” value ([1]; human, in vivo) was 40% and the “Thrombocytopenia G1” value ([1]; human, in vivo) was 40%. The “ALT elevation G1” value ([1]; human, in vivo, 1 cycle) was 17%, the “AST elevation G1” value ([1]; human, in vivo, 1 cycle) was 33% and the “Anemia G1” value ([1]; human, in vivo, 1 cycle) was 25%. For the same molecule, the “Anorexia G2” value ([1]; human, in vivo, 1 cycle) was 17%, the “Diarrhea G1” value ([1]; human, in vivo, 1 cycle) was 33% and the “Hypoalbuminemia G1” value ([1]; human, in vivo, 1 cycle) was 25%. The “Hypocalcemia G1” value ([1]; human, in vivo, 1 cycle) was 25%, the “patients who developed hypothyroidism (≤ grade 2)” value ([1]; human, in vivo, 1 cycle) was “Three of 23” and the “ALT elevation G2” value ([1]; human, in vivo, 42 days) was 11%. The “Anorexia G1” value ([1]; human, in vivo, 42 days) was 11%, the “CNS hemorrhage G4” value ([1]; human, in vivo, 42 days) was 11% and the “Constipation G1” value ([1]; human, in vivo, 42 days) was 11%. For the same molecule, the “Cranial neuropathy G4” value ([1]; human, in vivo, 42 days) was 11%, the “Decreased serum bicarbonate G1” value ([1]; human, in vivo, 42 days) was 11% and the “Dehydration G1” value ([1]; human, in vivo, 42 days) was 11%. The “Diarrhea G1” value ([1]; human, in vivo, 42 days) was 11%, the “Diarrhea G2” value ([1]; human, in vivo, 42 days) was 11% and the “Epistaxis G1” value ([1]; human, in vivo, 42 days) was 11%. The “Eye swelling G1” value ([1]; human, in vivo, 42 days) was 11%, the “Headache G1” value ([1]; human, in vivo, 42 days) was 11% and the “Hypernatremia G1” value ([1]; human, in vivo, 42 days) was 11%. The “Hypertension G1” value ([1]; human, in vivo, 42 days) was 11%, the “Hyperuricemia G1” value ([1]; human, in vivo, 42 days) was 11% and the “Hyperuricemia G4” value ([1]; human, in vivo, 42 days) was 11%. For the same molecule, the “Hypoalbuminemia G1” value ([1]; human, in vivo, 42 days) was 11%, the “Hypomagnesemia G1” value ([1]; human, in vivo, 42 days) was 11% and the “Hypothyroidism G1” value ([1]; human, in vivo, 42 days) was 11%. For the same molecule, the “Left ventricular systolic dysfunction G2” value ([1]; human, in vivo, 42 days) was 17%, the “Leukopenia G1” value ([1]; human, in vivo, 42 days) was 33% and the “Leukopenia G2” value ([1]; human, in vivo, 42 days) was 17%. The “Leukopenia G3” value ([1]; human, in vivo, 42 days) was 25%, the “Lipase elevation G1” value ([1]; human, in vivo, 42 days) was 11% and the “Lymphopenia G1” value ([1]; human, in vivo, 42 days) was 17%. For the same molecule, the “Lymphopenia G3” value ([1]; human, in vivo, 42 days) was 17%, the “Muscle or joint pain G1” value ([1]; human, in vivo, 42 days) was 11% and the “Muscle or joint pain G2” value ([1]; human, in vivo, 42 days) was 11%. The “Neutropenia G2” value ([1]; human, in vivo, 42 days) was 17%, the “Neutropenia G3” value ([1]; human, in vivo, 42 days) was 33% and the “Thrombocytopenia G1” value ([1]; human, in vivo, 42 days) was 42%. The “Thrombocytopenia G2” value ([1]; human, in vivo, 42 days) was 25%, the “Weight loss G2” value ([1]; human, in vivo, 42 days) was 17% and the cardiac dysfunction ([1]; in vivo) was “No cardiac dysfunction was observed”. For the same molecule, the “changes in hair color and texture” value ([1]; in vivo) was “not reported”, the growth plate thickening ([1]; in vivo) was “did not demonstrate any growth plate thickening” and the hypertension ([1]; in vivo) was “rarely reported”. For the same molecule, the “patients who developed hypothyroidism (≤ grade 2)” value ([1]; in vivo) was “Two patients”, the maximum tolerated dose ([1]; patients without prior anthracycline or cardiac radiation exposure, once daily for 28 days followed by a 14-day break) was 15 mg/m^2/day and the objective responses ([2]; 17 patients evaluable for response) was “No objective responses were observed”. The “patients with best response of stable disease” value ([2]; diffuse pontine glioma (2 cycles), osteosarcoma (4 cycles), epithelioid sarcoma (9 cycles), ganglioglioma (9 cycles)) was “Four patients”, the 123I-meta-iodobenzylguanidine scan finding ([2]; one patient with neuroblastoma, one cycle at 20 mg/m^2, persistent bone marrow disease) was “resolution of the disease noted at baseline” and the “change in plasma VEGF concentration” value [3] was “increased significantly”. For the same molecule, the “change in plasma placental growth factor concentration” value [4] was “increased significantly”, the “change in plasma endoglin concentration” value [5] was “decreased significantly” and the “change in plasma SDF-1 concentration” value [6] was “did not change in a consistent manner”. For the same molecule, the “change in totals and subsets of CECs and CEPs” value [7] was “did not reliably change”, the “decrease in AMC, range” value [8, 15] was 18 to 1253 µL⁻¹ and the “median decrease in AMC” value [8, 15] was 117 µL⁻¹. The “patients with decreases in absolute monocyte count (AMC)” value ([8]; 18 patients with paired day 1 and day 28 counts) was 17, the AUC0-48h [9] was 0.698 ng·h/mL and the “AUC0-48h, Median” value [9] was 0.492 ng·h/mL. For the same molecule, the “AUC0-∞” value [9] was 0.879 ng·h/mL, the “AUC0-∞, Median” value [9] was 0.747 ng·h/mL and the “Tmax, Max” value [9] was 48.0 h. The “Tmax, Min” value [9] was 2.0 h, the “median peak plasma concentration” value [9] was 16.8 ng/mL and the “peak plasma concentration, range” value [9] was 9.5 to 61.4 ng/mL. The “time at which median peak plasma concentration was achieved” value [9] was 7 h, the “incidence of grade 3 or symptomatic congestive heart failure” value ([10]; adult patients treated with sunitinib, ref [30]-[32]) was 7-15% and the “cases requiring dose reductions” value ([10]; adults treated with sunitinib, ref [5], [6], [24], [25]) was 11-50%. The Cmax [11] was 26.3 ng/mL, the “Css, Max” value ([12]; 15 mg/m^2 dose level) was 57.9 ng/mL and the “Css, Median” value ([12]; 15 mg/m^2 dose level) was 28.0 ng/mL. The “Css, Min” value ([12]; 15 mg/m^2 dose level) was 13.2 ng/mL, the “Css, Max” value ([12]; 20 mg/m^2 dose level) was 65.0 ng/mL and the “Css, Median” value ([12]; 20 mg/m^2 dose level) was 36.5 ng/mL. The “Css, Min” value ([12]; 20 mg/m^2 dose level) was 28.2 ng/mL, the “Day 21 Css sunitinib” value ([12]; Patient 1 with cardiac toxicity, 20 mg/m^2) was 40 ng/mL and the “Day 21 Css sunitinib” value ([12]; Patient 2 with cardiac toxicity, 15 mg/m^2) was 18 ng/mL. The “steady state plasma concentrations reached by” value ([12]; once daily oral dosing, cycle 1) was at most 7 days.

For CCNCCNC(=O)c1c(C)[nH]c(/C=C2\C(=O)Nc3ccc(F)cc32)c1C [SU12662], the “steady state plasma concentrations reached by” value [13] was at most 7 days, the “Tmax, Max” value [9] was 48.7 h and the “Tmax, Median” value [9] was 8.0 h. For the same molecule, the “Tmax, Min” value [9] was 4.0 h, the Cmax ([9]; 20 mg/m2) was 5.3 ng/mL and the Tmax ([9]; 20 mg/m2) was 8.0 h. For the same molecule, the “AR (accumulation ratio = Css/C24h)” value ([14]; dose level 20 mg/m^2, N = 1) was 4.2, the “AR (accumulation ratio = Css/C24h), Max” value [14, 16] was 11.1 and the “AR (accumulation ratio = Css/C24h), Median” value [14, 16] was 6.4. The “AR (accumulation ratio = Css/C24h), Min” value [14, 16] was 3.4.
